Assay results reported in patent publication US20240174637A1, “DEGRADERS OF GRK2 AND USES THEREOF” (Sonata Therapeutics, Inc., priority 2021, published 2024).

Legend:
GRK2 [1] = molecular target: T1, GRK2 (Homo sapiens, UniProt P25098); experiment: GRK2 Degradation Assay and Western Blot in PAXF1657 cells; format: cell-based; set-up: endogenous in cells; host or cells: PAXF1657; conditions: PAXF1657 EV, 24 hrs; for inhibition at 1 µM: read-out: % GRK2 degradation at 1 uM in PAXF1657 EV (24 hrs)
T1 sequence (P25098 1-689): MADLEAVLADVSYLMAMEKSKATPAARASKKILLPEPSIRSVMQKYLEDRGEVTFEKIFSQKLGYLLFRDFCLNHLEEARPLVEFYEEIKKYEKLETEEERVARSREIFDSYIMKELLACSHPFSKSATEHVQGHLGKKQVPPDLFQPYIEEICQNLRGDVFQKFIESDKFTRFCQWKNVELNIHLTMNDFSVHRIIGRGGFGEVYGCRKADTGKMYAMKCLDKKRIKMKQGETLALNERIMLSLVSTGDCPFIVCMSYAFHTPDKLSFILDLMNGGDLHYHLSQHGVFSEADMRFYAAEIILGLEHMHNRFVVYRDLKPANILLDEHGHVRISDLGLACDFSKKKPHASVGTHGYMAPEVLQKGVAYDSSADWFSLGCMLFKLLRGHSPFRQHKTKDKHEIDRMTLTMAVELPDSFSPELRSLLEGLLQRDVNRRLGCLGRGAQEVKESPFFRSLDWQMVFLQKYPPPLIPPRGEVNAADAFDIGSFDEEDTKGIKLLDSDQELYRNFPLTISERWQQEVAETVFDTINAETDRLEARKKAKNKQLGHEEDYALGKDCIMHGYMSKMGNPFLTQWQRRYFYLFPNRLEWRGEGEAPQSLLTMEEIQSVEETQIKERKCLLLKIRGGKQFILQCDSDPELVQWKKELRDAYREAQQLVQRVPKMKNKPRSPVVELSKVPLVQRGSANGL
In short: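 GRK2 degradation judged by immunoblot: NP40 lysates separated by SDS-PAGE and probed for GRK2 and β-actin, with HRP/ECL detection. Lysates came from PAXF1657 cells exposed to 0–10 μM compound for 6–24 h after reaching 70% confluency.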

GRK2 [2] = molecular target: T1, GRK2; experiment: ADPGlo GRK2 Inhibition Assay (Example 2); format: biochemical; conditions: ADP-Glo, 10 μM ATP; read-out: ADP Glo Enzymatic GRK2 Assay: IC50 (nM) (Example 2)
Experimental: Assay: GRK2 (7.5 nM) was incubated with ATP (10 μM) and GRKtide (0.3 mg/mL) in 5 μL of assay buffer (see above) for 180 min at room temperature. HTS was performed using 1 μM compound. Compounds were dissolved in 100% DMSO, serially diluted tree-fold from 100 μM concentration to 46 nM and transferred (50 nL) into assay ready plate.
Materials: GRK2 was purchased from SignalChem (Cat #A14-10G, Lot #X645-3). Substrate GRKtide was from SignalChem (Cat #G46-58, Lot #R339-6). ADP-Glo Kinase Assay from Promega (Cat #V9102). Assay buffer consisted of 25 mM HEPES (pH7.5), 10 mM MgCl2, 0.01% Tween-20, 1 mM DDT. 384-well white plates were from Greiner […] (Item #784075).
HTS protocol: Take 384 well plate with 50 nL of compound in columns 3-22/DMSO solution 1-2,23-24. Add 2.5 μL assay buffer to columns 23 and 24 using Thermo Scientific Multidrop Combi Dispenser. Add 2.5 μL of 2× enzyme solution (15 nM in 1× assay buffer) using Thermo Scientific Multidrop Combi Reagent Dispenser to all columns except of 23 and 24. Incubate for 15 minutes. Fill plate with 2.5 μL of 2× substrate mix (20 μM ATP and 0.6 mg/mL GRKtide in 1× assay buffer) using Thermo Scientific Multidrop Combi Reagent Dispenser. Spin 15 seconds at 1000 rpm and incubate for 180 min at room temperature. Add 5 μL ADP-Glo reagent to all the wells. Spin 15 seconds at 1000 rpm and incubate for 40 min at room temperature. Add 10 μL Detection solution to all the wells. Incubate for 30 min at room temperature. Read plate in Luminescent mode on BMG PheraStar FSX (gain=3600).
Data Analysis: Data were analyzed in GraphPad Prism 8.0.2. Each HTS plate contains compounds in columns 3-22, controls (enzyme, no compound) in columns 1 and 2, and blanks (no enzyme) in columns 23 and 24. HTS percent inhibition was calculated for each compound from the signal in luminescence units and the mean of the plate controls and the mean of the plate blanks using the following equation: % Inhibition=100*(1−((signal−blank mean)/(control mean−blank mean))). At the final stage of data processing, we obtain dose-response curves, tables and SDF-files with the results of screening for each substance.

Cc1ncsc1-c1ccc(CNC(=O)[C@@H]2C[C@@H](O)CN2C(=O)[C@@H](NC(=O)COCCOCCCCCCOc2cccc(CNC(=O)c3cccc(NCc4nnc(-c5ccncn5)n4C)c3)c2)C(C)(C)C)cc1 [Compound D101]
inhibition at 1 µM (GRK2 [1]): 18% | % GRK2 degradation at 10 uM in PAXF1657 EV (24 hrs) (GRK2 [1]): 10% | IC50 (GRK2 [2]): < 100 nM

Cc1ncsc1-c1ccc(CNC(=O)[C@@H]2C[C@@H](O)CN2C(=O)[C@@H](NC(=O)COCCOCCOCCOCCOCCOCCCCCCOc2cccc(CNC(=O)c3cccc(NCc4nnc(-c5ccncn5)n4C)c3)c2)C(C)(C)C)cc1 [Compound D100]
inhibition at 1 µM (GRK2 [1]): 22% | % GRK2 degradation at 10 uM in PAXF1657 EV (24 hrs) (GRK2 [1]): 39% | IC50 (GRK2 [2]): < 100 nM
